What all share (assay): cell-based
For one test, the target named is hNav1.7 (Homo sapiens, UniProt Q15858). In kind it is cell-based. As to conditions: IonWorks Quattro, use-dependent block, read-out: IWQ Use Nav1.7. For orientation: In patch-clamp work, channel activity is measured electrically.
The next test deals with hNav1.5 (Homo sapiens, UniProt Q14524). The settings on record: IonWorks Quattro, use-dependent block, read-out: IWQ Use Nav1.5.
Another test addresses hNav1.3 (Homo sapiens, UniProt Q9NY46). The settings on record: IonWorks Quattro, use-dependent block, read-out: IWQ Use Nav1.3.

Read-outs that look alike come from different tables or passages of the source. Positions of bridges follow the written chain, without caps; N, C: chain ends. Non-standard residues stand in square brackets, D forms with d. Residues, ends and D or L forms follow the SMILES beside them. 1Nal = N[C@@H](Cc1cccc2ccccc12)C(=O)O Bounds are passed on as bounds.

Chain of hNav1.5 (Q14524 whole entry, looked up): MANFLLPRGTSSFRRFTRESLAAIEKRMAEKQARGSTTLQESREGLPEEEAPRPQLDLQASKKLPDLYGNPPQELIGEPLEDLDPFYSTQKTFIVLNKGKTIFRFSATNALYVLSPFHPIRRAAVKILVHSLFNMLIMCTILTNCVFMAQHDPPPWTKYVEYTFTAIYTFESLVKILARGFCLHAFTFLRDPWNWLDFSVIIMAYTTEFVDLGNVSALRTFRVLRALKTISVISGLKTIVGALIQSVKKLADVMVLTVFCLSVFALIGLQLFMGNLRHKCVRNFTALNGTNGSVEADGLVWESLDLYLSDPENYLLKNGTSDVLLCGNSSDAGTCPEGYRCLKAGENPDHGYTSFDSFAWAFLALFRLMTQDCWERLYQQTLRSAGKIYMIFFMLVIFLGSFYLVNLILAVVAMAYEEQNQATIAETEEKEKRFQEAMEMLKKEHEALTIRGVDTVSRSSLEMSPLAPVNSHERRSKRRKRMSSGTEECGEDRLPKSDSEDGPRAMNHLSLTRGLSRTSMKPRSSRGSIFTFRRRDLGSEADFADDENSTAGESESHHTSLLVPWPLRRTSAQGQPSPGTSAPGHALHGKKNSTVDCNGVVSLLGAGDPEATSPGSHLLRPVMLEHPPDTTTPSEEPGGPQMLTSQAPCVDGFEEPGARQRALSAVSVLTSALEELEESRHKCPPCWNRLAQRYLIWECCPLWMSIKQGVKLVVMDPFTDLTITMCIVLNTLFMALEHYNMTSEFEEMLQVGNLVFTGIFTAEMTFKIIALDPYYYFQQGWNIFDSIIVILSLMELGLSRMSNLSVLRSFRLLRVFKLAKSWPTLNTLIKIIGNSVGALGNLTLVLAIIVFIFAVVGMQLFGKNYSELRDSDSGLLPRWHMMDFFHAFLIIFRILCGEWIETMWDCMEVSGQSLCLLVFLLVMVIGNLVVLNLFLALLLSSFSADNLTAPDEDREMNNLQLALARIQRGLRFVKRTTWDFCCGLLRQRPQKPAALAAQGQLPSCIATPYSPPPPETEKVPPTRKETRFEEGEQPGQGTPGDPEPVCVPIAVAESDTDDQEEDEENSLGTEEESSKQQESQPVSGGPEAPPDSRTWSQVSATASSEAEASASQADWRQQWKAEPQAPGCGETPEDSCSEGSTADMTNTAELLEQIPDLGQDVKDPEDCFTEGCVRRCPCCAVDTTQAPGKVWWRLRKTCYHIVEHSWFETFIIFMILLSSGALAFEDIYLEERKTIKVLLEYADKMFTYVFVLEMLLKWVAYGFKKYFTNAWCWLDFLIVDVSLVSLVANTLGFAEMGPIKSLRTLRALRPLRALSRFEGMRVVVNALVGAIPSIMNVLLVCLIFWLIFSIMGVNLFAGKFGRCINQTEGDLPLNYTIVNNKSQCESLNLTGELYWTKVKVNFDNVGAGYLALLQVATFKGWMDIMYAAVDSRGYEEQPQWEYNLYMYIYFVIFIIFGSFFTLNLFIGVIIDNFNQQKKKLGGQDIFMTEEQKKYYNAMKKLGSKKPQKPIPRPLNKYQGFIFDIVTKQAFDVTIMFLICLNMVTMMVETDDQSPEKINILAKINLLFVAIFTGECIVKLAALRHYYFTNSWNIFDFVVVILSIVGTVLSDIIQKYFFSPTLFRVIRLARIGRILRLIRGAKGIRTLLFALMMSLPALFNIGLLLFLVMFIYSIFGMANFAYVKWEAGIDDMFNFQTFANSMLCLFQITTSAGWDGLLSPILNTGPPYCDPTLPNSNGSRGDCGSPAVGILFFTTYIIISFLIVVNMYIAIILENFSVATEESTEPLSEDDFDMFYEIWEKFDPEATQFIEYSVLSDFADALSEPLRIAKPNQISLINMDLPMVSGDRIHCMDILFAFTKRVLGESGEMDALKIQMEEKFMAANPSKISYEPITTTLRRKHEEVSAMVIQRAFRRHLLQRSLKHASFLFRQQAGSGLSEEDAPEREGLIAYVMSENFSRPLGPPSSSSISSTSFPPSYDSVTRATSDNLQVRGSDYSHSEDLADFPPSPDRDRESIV
Chain of hNav1.3 (Q9NY46 whole entry, looked up): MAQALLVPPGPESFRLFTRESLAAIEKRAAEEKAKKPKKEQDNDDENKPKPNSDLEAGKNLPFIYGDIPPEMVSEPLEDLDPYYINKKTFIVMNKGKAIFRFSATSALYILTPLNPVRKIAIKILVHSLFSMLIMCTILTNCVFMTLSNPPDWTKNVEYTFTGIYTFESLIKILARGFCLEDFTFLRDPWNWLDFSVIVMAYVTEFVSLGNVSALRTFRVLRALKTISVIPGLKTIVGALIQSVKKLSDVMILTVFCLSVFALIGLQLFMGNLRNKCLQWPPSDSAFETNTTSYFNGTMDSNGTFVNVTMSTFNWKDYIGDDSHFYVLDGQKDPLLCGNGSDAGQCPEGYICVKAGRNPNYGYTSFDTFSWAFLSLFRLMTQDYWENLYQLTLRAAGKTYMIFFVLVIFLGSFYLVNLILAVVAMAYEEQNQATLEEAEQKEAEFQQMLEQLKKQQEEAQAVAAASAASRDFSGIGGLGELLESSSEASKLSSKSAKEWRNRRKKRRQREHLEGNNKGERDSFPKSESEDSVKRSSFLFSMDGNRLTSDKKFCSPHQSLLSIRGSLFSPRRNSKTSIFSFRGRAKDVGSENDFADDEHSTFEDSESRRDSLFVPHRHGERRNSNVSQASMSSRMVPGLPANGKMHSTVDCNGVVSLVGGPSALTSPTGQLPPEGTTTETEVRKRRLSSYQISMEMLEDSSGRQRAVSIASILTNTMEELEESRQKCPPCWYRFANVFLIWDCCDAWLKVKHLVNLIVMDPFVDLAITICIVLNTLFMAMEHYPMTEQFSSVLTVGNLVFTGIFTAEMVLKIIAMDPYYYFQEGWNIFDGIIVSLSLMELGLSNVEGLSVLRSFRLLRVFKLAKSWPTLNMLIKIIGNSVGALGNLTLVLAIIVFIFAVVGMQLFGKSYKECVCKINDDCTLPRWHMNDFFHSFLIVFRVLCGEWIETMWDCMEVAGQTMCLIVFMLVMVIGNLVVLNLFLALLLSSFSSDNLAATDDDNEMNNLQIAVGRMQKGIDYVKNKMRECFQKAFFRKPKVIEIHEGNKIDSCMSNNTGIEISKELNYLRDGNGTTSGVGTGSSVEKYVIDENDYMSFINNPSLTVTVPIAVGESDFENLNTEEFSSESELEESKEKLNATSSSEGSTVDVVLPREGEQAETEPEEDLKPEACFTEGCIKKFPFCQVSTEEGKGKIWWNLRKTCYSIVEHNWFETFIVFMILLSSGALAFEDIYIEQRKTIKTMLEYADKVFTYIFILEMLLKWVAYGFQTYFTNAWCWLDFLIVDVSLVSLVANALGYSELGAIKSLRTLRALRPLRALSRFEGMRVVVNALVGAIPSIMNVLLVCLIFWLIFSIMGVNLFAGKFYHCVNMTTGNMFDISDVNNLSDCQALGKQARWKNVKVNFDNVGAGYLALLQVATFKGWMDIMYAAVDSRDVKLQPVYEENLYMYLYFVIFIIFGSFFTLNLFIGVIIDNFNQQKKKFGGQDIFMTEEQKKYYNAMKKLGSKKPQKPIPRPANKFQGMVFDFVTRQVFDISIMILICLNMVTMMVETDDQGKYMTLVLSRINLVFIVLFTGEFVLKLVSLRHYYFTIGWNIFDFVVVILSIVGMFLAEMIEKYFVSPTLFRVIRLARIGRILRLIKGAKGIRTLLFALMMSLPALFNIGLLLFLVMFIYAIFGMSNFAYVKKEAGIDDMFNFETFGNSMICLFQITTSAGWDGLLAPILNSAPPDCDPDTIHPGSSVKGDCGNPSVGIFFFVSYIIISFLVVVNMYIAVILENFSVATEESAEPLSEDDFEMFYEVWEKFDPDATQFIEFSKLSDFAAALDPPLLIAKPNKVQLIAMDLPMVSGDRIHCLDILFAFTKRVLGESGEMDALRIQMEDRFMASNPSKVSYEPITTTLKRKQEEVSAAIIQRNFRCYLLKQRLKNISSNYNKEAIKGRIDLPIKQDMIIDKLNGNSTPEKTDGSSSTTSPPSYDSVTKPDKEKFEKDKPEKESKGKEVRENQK

Take `CC[C@H](C)[C@@H]1NC(=O)[C@@H]2CSSC[C@@H]3NC(=O)[C@H](C(C)C)NC(=O)[C@H](CC(C)C)NC(=O)[C@H](CC(N)=O)NC(=O)[C@@H]4CCCN4C(=O)[C@H](CCCNC(=N)N)NC(=O)[C@H](CSSC[C@H](NC(=O)[C@@H](N)CC(=O)O)C(=O)N[C@@H](CC(C)C)C(=O)NCC(=O)N[C@@H](Cc4ccccc4)C(=O)N[C@@H](CCSC)C(=O)N[C@@H](CCCNC(=N)N)C(=O)N[C@@H](CCCCN)C(=O)N2)NC(=O)[C@H](CSSC[C@@H](C(=O)N[C@@H](CCCCN)C(=O)N[C@@H](Cc2ccc(O)cc2)C(=O)N[C@@H](Cc2cccc4ccccc24)C(=O)N[C@@H](Cc2ccccc2)C(N)=O)NC(=O)[C@H](Cc2c[nH]c4ccccc24)NC(=O)[C@H](CCCCN)NC(=O)[C@H](Cc2c[nH]cn2)NC(=O)[C@H](CC(C)C)NC(=O)[C@H](CCCNC(=N)N)NC(=O)[C@H](CO)NC3=O)NC(=O)[C@H](CCCCN)NC(=O)[C@H](CC(=O)O)NC(=O)[C@H](CC(N)=O)NC(=O)[C@H](CC(=O)O)NC(=O)[C@@H]2CCCN2C1=O` [compound 463] (H-DCLGFMRKCIPDNDKCCRPNLVCSRLHKWCKY[1Nal]F-NH2; disulfide 2-17, 9-23, 16-30): the values for the IC50 on hNav1.7 (hNav1.7), on hNav1.5 (hNav1.5) and on hNav1.3 (hNav1.3) were 0.13 µM, greater than 5 µM and 0.18 µM, respectively.
For `CSCC[C@@H]1NC(=O)[C@H](Cc2ccccc2)NC(=O)CNC(=O)[C@H](CC(C)C)NC(=O)[C@@H](NC(=O)[C@H](CC(=O)O)NC(=O)[C@@H](N)Cc2c[nH]c3ccccc23)CSSC[C@@H]2NC(=O)[C@@H]3CSSC[C@@H](C(=O)N[C@@H](CCCCN)C(=O)N[C@@H](Cc4ccc(O)cc4)C(=O)N[C@H](C(=O)N[C@@H](Cc4ccccc4)C(N)=O)C(C)C)NC(=O)[C@H](Cc4c[nH]c5ccccc45)NC(=O)[C@H](CCCCN)NC(=O)[C@H](Cc4c[nH]cn4)NC(=O)[C@H]([C@@H](C)O)NC(=O)[C@H](CCCNC(=N)N)NC(=O)[C@H](CO)NC(=O)[C@H](CSSC[C@H](NC(=O)[C@H](CCCCN)NC(=O)[C@H](CCCNC(=N)N)NC1=O)C(=O)N[C@@H](Cc1cccc4ccccc14)C(=O)N1CCC[C@H]1C(=O)N[C@@H](CC(=O)O)C(=O)N[C@@H](CC(N)=O)C(=O)N[C@@H](CC(=O)O)C(=O)N[C@@H](CCCCN)C(=O)N3)NC(=O)[C@H](C(C)C)NC(=O)[C@H](CC(C)C)NC(=O)[C@H](CC(N)=O)NC(=O)[C@@H]1CCCN1C(=O)[C@H](CCCNC(=N)N)NC2=O` [compound 464] the same measures were 0.2 µM, greater than 5 µM and 0.22 µM.
As to `CC[C@H](C)[C@@H]1NC(=O)[C@@H]2CSSC[C@@H]3NC(=O)[C@H](C(C)C)NC(=O)[C@H](CC(C)C)NC(=O)[C@H](CC(N)=O)NC(=O)[C@@H]4CCCN4C(=O)[C@H](CCCNC(=N)N)NC(=O)[C@H](CSSC[C@H](NC(=O)[C@@H](N)CC(=O)O)C(=O)N[C@@H](CC(C)C)C(=O)NCC(=O)N[C@@H](Cc4ccccc4)C(=O)N[C@@H](Cc4ccccc4)C(=O)N[C@@H](CCCNC(=N)N)C(=O)N[C@@H](CCCCN)C(=O)N2)NC(=O)[C@H](CSSC[C@@H](C(=O)N[C@@H](CCCCN)C(=O)N[C@@H](Cc2ccc(O)cc2)C(=O)N[C@H](C(=O)N[C@@H](Cc2cccc4ccccc24)C(N)=O)C(C)C)NC(=O)[C@H](Cc2c[nH]c4ccccc24)NC(=O)[C@H](CCCCN)NC(=O)[C@H](Cc2c[nH]cn2)NC(=O)[C@H]([C@@H](C)O)NC(=O)[C@H](CCCNC(=N)N)NC(=O)[C@H](CO)NC3=O)NC(=O)[C@H](CCCCN)NC(=O)[C@H](CC(=O)O)NC(=O)[C@H](CC(N)=O)NC(=O)[C@H](CC(=O)O)NC(=O)[C@@H]2CCCN2C1=O` [compound 561] (H-DCLGFFRKCIPDNDKCCRPNLVCSRTHKWCKYV[1Nal]-NH2; disulfide 2-17, 9-23, 16-30), the IC50 turned out to be 0.011 µM on hNav1.7, 2.2 µM at hNav1.5 and 0.007 µM at hNav1.3.
With `CC[C@H](C)[C@@H]1NC(=O)[C@@H]2CSSC[C@@H]3NC(=O)[C@H](C(C)C)NC(=O)[C@H](CC(C)C)NC(=O)[C@H](CC(N)=O)NC(=O)[C@@H]4CCCN4C(=O)[C@H](CCCNC(=N)N)NC(=O)[C@H](CSSC[C@H](NC(=O)[C@@H](N)CC(=O)O)C(=O)N[C@@H](CC(C)C)C(=O)NCC(=O)N[C@@H](Cc4cccnc4)C(=O)N[C@@H](CCSC)C(=O)N[C@@H](CCCNC(=N)N)C(=O)N[C@@H](CCCCN)C(=O)N2)NC(=O)[C@H](CSSC[C@@H](C(=O)N[C@@H](CCCCN)C(=O)N[C@@H](Cc2ccc(O)cc2)C(=O)N[C@H](C(=O)N[C@@H](Cc2ccccc2)C(N)=O)C(C)C)NC(=O)[C@H](Cc2c[nH]c4ccccc24)NC(=O)[C@H](CCCCN)NC(=O)[C@H](Cc2c[nH]cn2)NC(=O)[C@H]([C@@H](C)O)NC(=O)[C@H](CCCNC(=N)N)NC(=O)[C@H](CO)NC3=O)NC(=O)[C@H](CCCCN)NC(=O)[C@H](CC(=O)O)NC(=O)[C@H](CC(N)=O)NC(=O)[C@H](CC(=O)O)NC(=O)[C@@H]2CCCN2C1=O` [compound 596], the figures for the IC50 on hNav1.7 (hNav1.7), at hNav1.5 (hNav1.5) and on hNav1.3 (hNav1.3) were 2.6 µM, greater than 5 µM and greater than 5 µM, respectively.
As for `CC[C@H](C)[C@@H]1NC(=O)[C@@H]2CSSC[C@@H]3NC(=O)[C@H](C(C)C)NC(=O)[C@H](CC(C)C)NC(=O)[C@H](CC(N)=O)NC(=O)[C@@H]4CCCN4C(=O)[C@H](CCCNC(=N)N)NC(=O)[C@H](CSSC[C@H](NC(=O)[C@@H](N)CC(=O)O)C(=O)N[C@@H](CC(C)C)C(=O)NCC(=O)N[C@@H](C)C(=O)N[C@@H](Cc4ccccc4)C(=O)N[C@@H](CCCNC(=N)N)C(=O)N[C@@H](CCCCN)C(=O)N2)NC(=O)[C@H](CSSC[C@@H](C(=O)N[C@@H](CCCCN)C(=O)N[C@@H](Cc2ccc(O)cc2)C(=O)N[C@H](C(=O)N[C@@H](Cc2ccccc2)C(=O)O)C(C)C)NC(=O)[C@H](Cc2c[nH]c4ccccc24)NC(=O)[C@H](CCCNC(=N)N)NC(=O)[C@H](Cc2c[nH]cn2)NC(=O)[C@H]([C@@H](C)O)NC(=O)[C@H](CCCNC(=N)N)NC(=O)[C@H](CO)NC3=O)NC(=O)[C@H](CCCCN)NC(=O)[C@H](CC(=O)O)NC(=O)[C@H](Cc2ccc(O)cc2)NC(=O)[C@H](CC(=O)O)NC(=O)[C@@H]2CCCN2C1=O` [compound 597] (H-DCLGAFRKCIPDYDKCCRPNLVCSRTHRWCKYVF-OH; disulfide 2-17, 9-23, 16-30), the values for the IC50 at hNav1.7 (hNav1.7), at hNav1.5 (hNav1.5) and at hNav1.3 (hNav1.3) were greater than 5 µM, 7.35 µM and 1.1 µM, respectively.
Take `CC[C@H](C)[C@@H]1NC(=O)[C@@H]2CSSC[C@@H]3NC(=O)[C@H](C(C)C)NC(=O)[C@H](CC(C)C)NC(=O)[C@H](CC(N)=O)NC(=O)[C@@H]4CCCN4C(=O)[C@H](CCCNC(=N)N)NC(=O)[C@H](CSSC[C@H](NC(=O)[C@@H](N)CC(=O)O)C(=O)N[C@@H](CC(C)C)C(=O)NCC(=O)N[C@@H](C)C(=O)N[C@@H](CC(C)C)C(=O)N[C@@H](CCCNC(=N)N)C(=O)N[C@@H](CCCCN)C(=O)N2)NC(=O)[C@H](CSSC[C@@H](C(=O)N[C@@H](CCCCN)C(=O)N[C@@H](Cc2ccc(O)cc2)C(=O)N[C@H](C(=O)N[C@@H](Cc2ccccc2)C(=O)O)C(C)C)NC(=O)[C@H](Cc2c[nH]c4ccccc24)NC(=O)CNC(=O)[C@H](Cc2c[nH]cn2)NC(=O)[C@H]([C@@H](C)O)NC(=O)[C@H](CCCNC(=N)N)NC(=O)[C@H](CO)NC3=O)NC(=O)[C@H](CCCCN)NC(=O)[C@H](CC(=O)O)NC(=O)[C@H](CC(N)=O)NC(=O)[C@H](CC(=O)O)NC(=O)[C@@H]2CCCN2C1=O` [compound 598] (H-DCLGALRKCIPDNDKCCRPNLVCSRTHGWCKYVF-OH; disulfide 2-17, 9-23, 16-30): the IC50 on hNav1.7 (hNav1.7) is greater than 5 µM; at hNav1.5 (hNav1.5) it was 12.6 µM; at hNav1.3 (hNav1.3), 4 µM.
For `CC[C@H](C)[C@@H]1NC(=O)[C@@H]2CSSC[C@@H]3NC(=O)[C@H](C(C)C)NC(=O)[C@H](CC(C)C)NC(=O)[C@H](CC(N)=O)NC(=O)[C@@H]4CCCN4C(=O)[C@H](CCCNC(=N)N)NC(=O)[C@H](CSSC[C@H](NC(=O)[C@@H](N)CC(=O)O)C(=O)N[C@@H](CC(C)C)C(=O)NCC(=O)N[C@@H](C)C(=O)N[C@@H](CC(C)C)C(=O)N[C@@H](CCCNC(=N)N)C(=O)N[C@@H](CCCCN)C(=O)N2)NC(=O)[C@H](CSSC[C@@H](C(=O)N[C@@H](CCCCN)C(=O)N[C@@H](Cc2ccc(O)cc2)C(=O)N[C@H](C(=O)N[C@@H](Cc2ccccc2)C(=O)O)C(C)C)NC(=O)[C@H](Cc2c[nH]c4ccccc24)NC(=O)[C@H](Cc2c[nH]cn2)NC(=O)[C@H](Cc2c[nH]cn2)NC(=O)[C@H]([C@@H](C)O)NC(=O)[C@H](CCCNC(=N)N)NC(=O)[C@H](CO)NC3=O)NC(=O)[C@H](CCCCN)NC(=O)[C@H](CC(=O)O)NC(=O)[C@H](CC(N)=O)NC(=O)[C@H](CC(=O)O)NC(=O)[C@@H]2CCCN2C1=O` [compound 599] (H-DCLGALRKCIPDNDKCCRPNLVCSRTHHWCKYVF-OH; disulfide 2-17, 9-23, 16-30), the IC50 on hNav1.7 (hNav1.7) was greater than 5 µM; at hNav1.5 (hNav1.5), 12.7 µM; at hNav1.3 (hNav1.3), 2.2 µM.
For the compound `CC[C@H](C)[C@@H]1NC(=O)[C@@H]2CSSC[C@@H]3NC(=O)[C@H](C(C)C)NC(=O)[C@H](CC(C)C)NC(=O)[C@H](CC(N)=O)NC(=O)[C@@H]4CCCN4C(=O)[C@H](CCCNC(=N)N)NC(=O)[C@H](CSSC[C@H](NC(=O)[C@@H](N)CC(=O)O)C(=O)N[C@@H](CC(C)C)C(=O)NCC(=O)N[C@@H](C)C(=O)N[C@@H](CC(C)C)C(=O)N[C@@H](CCCNC(=N)N)C(=O)N[C@@H](CCCCN)C(=O)N2)NC(=O)[C@H](CSSC[C@@H](C(=O)N[C@@H](CCCCN)C(=O)N[C@@H](Cc2ccc(O)cc2)C(=O)N[C@H](C(=O)N[C@@H](Cc2ccccc2)C(=O)O)C(C)C)NC(=O)[C@H](Cc2c[nH]c4ccccc24)NC(=O)[C@H](CCCCN)NC(=O)[C@H](Cc2c[nH]cn2)NC(=O)[C@H]([C@@H](C)O)NC(=O)[C@H](CCCNC(=N)N)NC(=O)[C@H](CO)NC3=O)NC(=O)[C@H](CCCCN)NC(=O)[C@H](CC(=O)O)NC(=O)[C@H](CC(N)=O)NC(=O)[C@H](CC(=O)O)NC(=O)[C@@H]2CCCN2C1=O` [compound 600] (H-DCLGALRKCIPDNDKCCRPNLVCSRTHKWCKYVF-OH; disulfide 2-17, 9-23, 16-30), the IC50 on hNav1.7 (hNav1.7) is greater than 5 µM; on hNav1.5 (hNav1.5), 12.6 µM; at hNav1.3 (hNav1.3), 3.1 µM.

The values are drawn from patent publication US9340590B2 (priority 2011, dated 2016).
